Earlier results as cited in patent US7329656B2, “Arylthiobenzylpiperidine derivatives” (H. Lundbeck A/S, priority 2004, dated 2008).
Read-outs that look alike come from different tables or passages of the source.

Experiments:
rat [1] = conditions: rat forced-swim
rat [2] = conditions: rat social interaction
guinea pig = guinea pig maternal-separation vocalization

COCC1=C(C(=O)OC)[C@H](c2ccc(F)c(F)c2)N(C(=O)NCCCN2CCC(c3cccc(NC(C)=O)c3)CC2)C(=O)N1 [SNAP-7941]
behavioral profile in model of depression and/or anxiety (rat [1]): profile similar to clinically used anti-depressants and anxiolytics | behavioral profile in model of depression and/or anxiety (rat [2]): profile similar to clinically used anti-depressants and anxiolytics | behavioral profile in model of depression and/or anxiety (guinea pig): profile similar to clinically used anti-depressants and anxiolytics
